Data on 41 compounds can be found in the Deep4Chem optical property database.

A short description of this series: solvent given as SMILES.

On to `CCCCCCCN1C(=CC2=C([O-])C(=CC3=[N+](CCCCCCC)c4ccccc4C3(C)C)C2=C(C#N)C#N)Sc2ccccc21`, for which the absorption maximum runs as follows: (in C1COCCO1) 694 nm; (in CCO) 681 nm; (in CN(C)C=O) 681 nm; (in ClC(Cl)Cl) 690 nm. The compound `FC(F)(F)c1ccc(/C=C2\C=C(c3ccccc3)C=C2c2ccccc2)cc1` displayed an absorption maximum (in C1CCOC1) of 450 nm. Where the note is “in ClCCl”, `CN(C)c1cccc(/C=C/c2ncc(-c3ccc(OCc4ccccc4)c(OCc4ccccc4)c3)o2)c1` came in with an absorption maximum of 350 nm. In the case of `Cc1cc(-c2nc(-c3ccccc3)nc(-c3ccccc3)n2)ccc1-c1ccc2c(c1)C1(c3ccccc3-c3ccccc31)c1ccccc1N2c1ccccc1`, the absorption maximum (in c1cc(-c2cccc(-n3c4ccccc4c4ccccc43)c2)cc(-n2c3ccccc3c3ccccc32)c1) is listed as 371.92 nm. In turn, `C(#Cc1ccc(C#Cc2ccc(C#Cc3ccccc3)cc2)cc1)c1ccccc1` showed an absorption maximum (in ClC(Cl)Cl) of 345 nm. `CCC(C)(C)c1ccc2c(c1)C(CCOC)(CCOC)c1cc(-c3ccc(-c4ccc5c(c4)C(CCOC)(CCOC)c4cc(C(C)(C)CC)ccc4-5)cc3)ccc1-2` had an absorption maximum (in C1CCCCC1) of 332 nm. As for `c1ccc(COc2cc(C[n+]3ccc(-c4cc[n+](Cc5cc(OCc6ccccc6)cc(OCc6ccccc6)c5)cc4)cc3)cc(OCc3ccccc3)c2)cc1`, under “in CC#N”, the absorption maximum came out at 261 nm. In turn, `CCCCN(CCCC)c1ccc(C#Cc2cc(C#Cc3ccc(C(F)(F)F)cc3)c(C#Cc3ccc(N(CCCC)CCCC)cc3)cc2C#Cc2ccc(C(F)(F)F)cc2)cc1` returned an absorption maximum (in ClCCl) of 438 nm.

Take `Cc1ccc(-n2c(-c3ccc(N(c4ccc(-c5ccc(N(c6ccc(-c7nc8c9ccccc9c9ccccc9c8n7-c7ccc(C)cc7)cc6)c6ccc(-c7nc8c9ccccc9c9ccccc9c8n7-c7ccc(C)cc7)cc6)cc5)cc4)c4ccc(-c5nc6c7ccccc7c7ccccc7c6n5-c5ccc(C)cc5)cc4)cc3)nc3c4ccccc4c4ccccc4c32)cc1`: the absorption maximum (in ClCCl) is on record as 376 nm. For the compound `CCN(CC)c1ccc2cc(-c3ccc(-c4ccc(-c5cc6ccc(N(CC)CC)cc6oc5=O)cc4)cc3)c(=O)oc2c1`, where the note is “in ClCCl”, the absorption maximum is on record as 417 nm. `CC1=CC(C)=[N+]2C1=Cc1c3ccccc3c(C#Cc3ccccc3)n1[B-]2(F)F` yielded an absorption maximum (in CCCCCC) of 608 nm; an absorption maximum (in CCCCCCCCO) of 612 nm; an absorption maximum (in CCOC(C)=O) of 606 nm; an absorption maximum (in CN(C)C=O) of 612 nm; an absorption maximum (in ClCCl) of 612 nm.

On to `CCCCCCCCCn1c(-c2cc(-c3nc4ccccc4n3CCCCCCCCC)cc(-c3nc4ccccc4n3CCCCCCCCC)c2)nc2ccccc21`, for which the absorption maximum (in ClCCl) came to 300 nm. As for `c1ccc(-c2cc(-c3ccccc3)cc(-c3ccccc3)c2)cc1`, the absorption maximum (in C1COCCO1) is 250 nm.

Take `C/C=C/c1ccc(OC)cc1`: the absorption maximum (in CCCCCC) came to 305 nm. For the setting “in C1CCOC1”, `C(=C1c2ccccc2-c2ccccc21)c1ccc(-c2ccc(C=C3c4ccccc4-c4ccccc43)cc2)cc1` returned an absorption maximum of 366 nm.

As for `COc1ccccc1-c1nc(-c2ccccc2)c(-c2ccccc2)[nH]1`, the absorption maximum (in CO) is recorded as 307 nm.

`COC(=O)c1c(-c2cc3ccccc3oc2=O)nn(-c2ccccc2)c1C(=O)OC`: under “in ClCCl”, the absorption maximum came to 322 nm.

For the compound `Cc1cc(=O)oc2ccc3ccc(O)cc3c12`, the absorption maximum was found to be 347 nm (in CC#N) and 350 nm (in CCO). Where the note is “in ClCCl”, `N#Cc1ccc(-c2cn3ccc[n+]3[n-]2)cc1` displayed an absorption maximum of 381 nm.

Compound `COC(=O)c1ccc(/C=C2\N=C(c3ccccc3)OC2=O)cc1` returned an absorption maximum (in C1COCCO1) of 370 nm. For the compound `CC(C)(C)NC1=C2C=CC=[N+]2[B-](F)(F)n2cccc21`, the absorption maximum by setting is: (in C1CCCCC1) 428 nm; (in CC(C)=O) 409.5 nm; (in CCO) 412.5 nm; (in CCOC(C)=O) 412 nm; (in CO) 410 nm; (in OCC(F)(F)F) 406 nm. For `CCOC(=O)C1=CNC=C(C(=O)OCC)C1c1ccccc1`, the absorption maximum was found to be 355 nm (in C1CCOC1) and 355 nm (in CO). `CC(C)(C)NC(=O)c1ccc(F)c2ccc3c4ccccc4c4ccccc4c3c12`: the absorption maximum (in ClCCl) is 334 nm.

`C#CCOc1ccc(/C=C/C2=[N+]3C(=C(c4ccc(N(CC)CC)cc4)c4c(C)cc(/C=C/c5ccc(OCC(=O)OC)cc5)n4[B-]3(F)F)C(C)=C2)cc1` showed an absorption maximum (in CO) of 640 nm. The compound `Cc1ccc(-n2c(-c3ccccc3N)nc3c4ccccc4c4ccccc4c32)cc1` gave an absorption maximum (in Cc1ccccc1) of 311 nm. On the same count and under the same terms, in the case of `c1ccc(-c2nc(-c3ccccc3)nc(-c3ccc(-n4c5ccc(-n6c7ccccc7c7ccccc76)cc5c5cc(-n6c7ccccc7c7ccccc76)ccc54)cc3)n2)cc1` it was 368 nm. In turn, `F[B-]1(F)n2c(c(-c3ccccc3)c(-c3cccs3)c2-c2ccccc2)N=C2C(c3ccccc3)=C(c3cccs3)C(c3ccccc3)=[N+]21` yielded an absorption maximum (in ClCCl) of 650 nm. On to `CC(=O)OCCN1C(=O)c2cccc3c(Oc4ccccc4C)ccc(c23)C1=O`, for which the absorption maximum (in ClC(Cl)Cl) is 352 nm. In the case of `O=S(=O)(c1ccc(N2c3ccccc3[Si](c3ccccc3)(c3ccccc3)c3ccccc32)cc1)c1ccc(N2c3ccccc3[Si](c3ccccc3)(c3ccccc3)c3ccccc32)cc1`, under “in Cc1ccccc1”, the absorption maximum was 328 nm. As to `CCN(CC)c1ccc2c(c1)OC1=C(/C=C/C3=[N+](C)c4ccccc4C3(C)C)CCCC1=C2c1ccccc1C(=O)O`, the absorption maximum is reported as 708 nm (in CC#N), 700 nm (in CCO), 700 nm (in CO) and 716 nm (in ClC(Cl)Cl). On to `O=c1oc2ccccc2c2c1c(=O)oc1cc(O)c3ccccc3c12`, for which the absorption maximum amounted to 441 nm (in CS(C)=O) and 442 nm (in ClCCl). On to `C/C(=C\c1ccc(Cl)cc1)c1nc2ccccc2o1`, for which the absorption maximum reads like this: (in C1CCCCC1) 320 nm; (in CO) 320 nm. Under “in ClCCl”, `CN(/N=C1\N=C(N)C2(CCCC2)c2ccccc21)c1ccccc1` yielded an absorption maximum of 378 nm. On to `Cc1cc(C)c(C2=C3C=C(/C=C/C(=O)OCc4ccccc4)C=[N+]3[B-](F)(F)n3cc(/C=C/C(=O)OCc4ccccc4)cc32)c(C)c1`, for which the absorption maximum (in ClCCl) turned out to be 576 nm.

`c1ccc(-c2nc(-c3ccccc3)nc(-c3ccc(-n4c5ccccc5c5cc6c(cc54)C4c5ccccc5C6c5ccccc54)cc3)n2)cc1` registered an absorption maximum (in Cc1ccccc1) of 373 nm. On the same count and under the same terms, under `CC(C)(C)c1c2ccc3[nH]c4c(ccc5c(C(C)(C)C)c(ccc6[nH]c7c(ccc1c7n2)c6C(C)(C)C)nc54)c3C(C)(C)C` stands 764 nm.

`CN(C)c1ccc(/C=C/c2cc(/C=C/c3ccc(N(C)C)cc3)nc(N)n2)cc1` had an absorption maximum (in Cc1ccccc1) of 414 nm and an absorption maximum (in ClC(Cl)Cl) of 426 nm. The compound `CC1=C(Cl)C(/C=C/c2ccc3c(c2)c2ccccc2n3Cc2cn(CCC[P+](c3ccccc3)(c3ccccc3)c3ccccc3)nn2)=[N+]2C1=C(c1ccc(I)cc1)c1c(C)c(Cl)c(C)n1[B-]2(F)F` displayed an absorption maximum (in CCO) of 612 nm. As to `c1ccc([B-]2(c3ccccc3)Oc3ccc4ccccc4c3-c3c4ccccc4cn[n+]32)cc1`, the absorption maximum (in Cc1ccccc1) worked out at 436 nm. `Cc1ccc2c(c1)C1(c3ccccc3-c3ccccc31)c1cc(C)ccc1N2c1ccc2c(c1)Oc1ccccc1P2(=S)c1ccccc1` (stereo unspecified) had an absorption maximum (in Cc1ccccc1) of 311.25 nm. For the compound `Cc1ccc(N(c2ccc(C)cc2)c2ccc(-c3ccc(C=C(C#N)C#N)o3)cc2)cc1`, the absorption maximum (in ClC(Cl)Cl) stood at 521 nm.
